Measured values taken from patent US20220409590A1, “CHEMOTHERAPY FOR GLIOMA THROUGH NEURONAL CONVERSION” (The Penn State Research Foundation, priority 2019, published 2022).

System: U251 cells
Test: Reprogramming of U251 cells; doublecortin immunostaining
Assay type: cell-based, human
Description: U251 cells were maintained in minimal essential media (MEM) supplemented with 2 mM glutamine, 1% non-essential amino acids, 1 mM sodium pyruvate, and 10% fetal bovine serum. Fifty thousand cells were seeded on to coverslips into 24-well plates. After 4 days in MEM, the cells were treated with the compound cocktail or dimethyl sulfoxide for another 4 days in Ham's F-12 (F-12) media supplemented with N2, B27 and insulin. The five-compound cocktail, referred to as described above as SLCDS, contained 5 μM SB431542, 0.25 μM LDN193189, 5 μM CHIR99021, 5 μM DAPT, and 40 μM SKL2001. After SLCDS treatment, F-12 media was changed every 4 days for 12 days. Cells were then crosslinked with 4% paraformaldehyde for 12 minutes and washed with Tris buffered saline (TBS). After three 5-minute washes, cells were blocked with 2.5% bovine serum albumin in Tris-buffered saline (TBS) with 0.1% Triton X-100 (TBSTx) for 1 hour. Primary antibody (goat Doublecortin, 1:500 dilution, sc-8066, Santa Cruz) were incubated with fixed cells overnight at 4° C. After three 5-minute washes, the secondary antibody (anti-goat Cy5, 1:1000) was incubated with fixed cells overnight at 4° C. After three 5-minute washes, the cover slip was mounted using mounting media. The fluorescent signal was detected using an ECHO Revolve microscope.

For `O=C(NCCCn1ccnc1)c1cc(-c2ccco2)on1` [SKL2001], the “dose response of doublecortin expression” value (SKL2001 in combination with SB431542, LDN193189, CHIR99021 and DAPT in U251 cells, FIG. 2) was “dose-response relationship is established” and the “conversion of U251 glioblastoma cells to neuronal cells” value (as evidenced by doublecortin expression) was “efficient conversion”.
